Reference: US8598365B2, “Herbicides” (Syngenta Limited, priority 2007, dated 2013)

Each molecule was assayed on Setaria faberi (SETFA) (assay: Example B pre-emergence herbicidal activity). Conditions: 312 h, rate 250 g/ha, evaluated after 13 days, read-out: Pre-Emergence Activity SETFA (100=total damage to plant; 0=no damage to plant).
Assay type: in vivo
How it was run: (§1)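 Damage was rated 13 days after treatment on a 0 (no damage) to 100 (total damage) scale. Pots of soil-sown plants had been sprayed one day after sowing for pre-emergence or at 8 days for post-emergence. Spray: acetone/water (50:50), 0.5% Tween 20.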
`CCc1sc(-c2ccc(F)cc2F)nc1C1C(=O)[C@@H]2CC[C@@H](C2)C1=O` (stereo partly shown) [Compound T104] was tested, and the pest or weed control at 250 g/ha was 50%. With `Cc1sc(-c2ccc(OC(F)F)cc2)nc1C1C(=O)[C@@H]2CC[C@@H](C2)C1=O` (stereo partly shown) [Compound T42] the pest or weed control at 250 g/ha was 100%. `CC(=O)OC1=C(c2nc(-c3ccc(Br)cn3)sc2C)C(=O)[C@H]2CC[C@@H]1C2` [Compound P6] gave a pest or weed control at 250 g/ha of 100%. With `CCc1sc(COc2ccc(Cl)cc2)nc1C1C(=O)[C@@H]2CC[C@@H](C2)C1=O` (stereo partly shown) [Compound T41] the pest or weed control at 250 g/ha was 40%.

What follows are molecules tested on Echinochloa crus-galli (ECHCG) (assay: Example B pre-emergence herbicidal activity). Conditions: 312 h, rate 250 g/ha, evaluated after 13 days, read-out: Pre-Emergence Activity ECHCG (100=total damage to plant; 0=no damage to plant).
Assay type: in vivo
How it was run: as §1
For `CCc1sc(-c2ccc(F)cc2F)nc1C1C(=O)[C@@H]2CC[C@@H](C2)C1=O` (stereo partly shown) [Compound T104], the pest or weed control at 250 g/ha was 100%. With `Cc1sc(-c2ccc(OC(F)F)cc2)nc1C1C(=O)[C@@H]2CC[C@@H](C2)C1=O` (stereo partly shown) [Compound T42] the pest or weed control at 250 g/ha was 100%. In the case of `CC(=O)OC1=C(c2nc(-c3ccc(Br)cn3)sc2C)C(=O)[C@H]2CC[C@@H]1C2` [Compound P6], the pest or weed control at 250 g/ha is reported as 20%. `CCc1sc(COc2ccc(Cl)cc2)nc1C1C(=O)[C@@H]2CC[C@@H](C2)C1=O` (stereo partly shown) [Compound T41] gave a pest or weed control at 250 g/ha of 100%.

What follows are molecules tested on Amaranthus retoflexus (AMARE) (assay: Example B pre-emergence herbicidal activity). Conditions: Amaranthus retroflexus, 312 h, rate 250 g/ha, evaluated after 13 days, read-out: Pre-Emergence Activity AMARE (100=total damage to plant; 0=no damage to plant).
Assay type: in vivo
How it was run: as §1
Work on `CCc1sc(-c2ccc(F)cc2F)nc1C1C(=O)[C@@H]2CC[C@@H](C2)C1=O` (stereo partly shown) [Compound T104] yielded a pest or weed control at 250 g/ha of 0%. In the case of `Cc1sc(-c2ccc(OC(F)F)cc2)nc1C1C(=O)[C@@H]2CC[C@@H](C2)C1=O` (stereo partly shown) [Compound T42], the pest or weed control at 250 g/ha is reported as 0%. With `CC(=O)OC1=C(c2nc(-c3ccc(Br)cn3)sc2C)C(=O)[C@H]2CC[C@@H]1C2` [Compound P6] the pest or weed control at 250 g/ha was 0%. `CCc1sc(COc2ccc(Cl)cc2)nc1C1C(=O)[C@@H]2CC[C@@H](C2)C1=O` (stereo partly shown) [Compound T41] gave a pest or weed control at 250 g/ha of 0%.

These molecules were tested on Avena fatua (AVEFA) (assay: Example B pre-emergence herbicidal activity). Conditions: 312 h, rate 250 g/ha, evaluated after 13 days, read-out: Pre-Emergence Activity AVEFA (100=total damage to plant; 0=no damage to plant).
Assay type: in vivo
How it was run: as §1
`CCc1sc(-c2ccc(F)cc2F)nc1C1C(=O)[C@@H]2CC[C@@H](C2)C1=O` (stereo partly shown) [Compound T104] gave a pest or weed control at 250 g/ha of 20%. Work on `Cc1sc(-c2ccc(OC(F)F)cc2)nc1C1C(=O)[C@@H]2CC[C@@H](C2)C1=O` (stereo partly shown) [Compound T42] yielded a pest or weed control at 250 g/ha of 0%. In the case of `CC(=O)OC1=C(c2nc(-c3ccc(Br)cn3)sc2C)C(=O)[C@H]2CC[C@@H]1C2` [Compound P6], the pest or weed control at 250 g/ha is reported as 0%. Molecule `CCc1sc(COc2ccc(Cl)cc2)nc1C1C(=O)[C@@H]2CC[C@@H](C2)C1=O` (stereo partly shown) [Compound T41] has a pest or weed control at 250 g/ha of 0%.

The molecules below were run on Alopecurus myosuroides (ALOMY) (assay: Example B pre-emergence herbicidal activity). Conditions: 312 h, rate 250 g/ha, evaluated after 13 days, read-out: Pre-Emergence Activity ALOMY (100=total damage to plant; 0=no damage to plant).
Assay type: in vivo
How it was run: as §1
In the case of `CCc1sc(-c2ccc(F)cc2F)nc1C1C(=O)[C@@H]2CC[C@@H](C2)C1=O` (stereo partly shown) [Compound T104], the pest or weed control at 250 g/ha is reported as 70%. For `Cc1sc(-c2ccc(OC(F)F)cc2)nc1C1C(=O)[C@@H]2CC[C@@H](C2)C1=O` (stereo partly shown) [Compound T42], the pest or weed control at 250 g/ha was 100%. For `CC(=O)OC1=C(c2nc(-c3ccc(Br)cn3)sc2C)C(=O)[C@H]2CC[C@@H]1C2` [Compound P6], the pest or weed control at 250 g/ha was 20%. `CCc1sc(COc2ccc(Cl)cc2)nc1C1C(=O)[C@@H]2CC[C@@H](C2)C1=O` (stereo partly shown) [Compound T41] was tested, and the pest or weed control at 250 g/ha was 80%.

What follows are molecules tested on Setaria faberi (SETFA) (assay: Example B post-emergence herbicidal activity). Conditions: 312 h, rate 250 g/ha, evaluated after 13 days, read-out: Post-emergence activity SETFA (100=total damage to plant; 0=no damage to plant).
Assay type: in vivo
How it was run: as §1
Molecule `CCc1sc(-c2ccc(F)cc2F)nc1C1C(=O)[C@@H]2CC[C@@H](C2)C1=O` (stereo partly shown) [Compound T104] has a pest or weed control at 250 g/ha of 100%. For `Cc1sc(-c2ccc(OC(F)F)cc2)nc1C1C(=O)[C@@H]2CC[C@@H](C2)C1=O` (stereo partly shown) [Compound T42], the pest or weed control at 250 g/ha was 100%. Work on `CC(=O)OC1=C(c2nc(-c3ccc(Br)cn3)sc2C)C(=O)[C@H]2CC[C@@H]1C2` [Compound P6] yielded a pest or weed control at 250 g/ha of 100%. Work on `CCc1sc(COc2ccc(Cl)cc2)nc1C1C(=O)[C@@H]2CC[C@@H](C2)C1=O` (stereo partly shown) [Compound T41] yielded a pest or weed control at 250 g/ha of 100%.

These molecules were tested on Echinochloa crus-galli (ECHCG) (assay: Example B post-emergence herbicidal activity). Conditions: 312 h, rate 250 g/ha, evaluated after 13 days, read-out: Post-emergence activity ECHCG (100=total damage to plant; 0=no damage to plant).
Assay type: in vivo
How it was run: as §1
Work on `CCc1sc(-c2ccc(F)cc2F)nc1C1C(=O)[C@@H]2CC[C@@H](C2)C1=O` (stereo partly shown) [Compound T104] yielded a pest or weed control at 250 g/ha of 100%. In the case of `Cc1sc(-c2ccc(OC(F)F)cc2)nc1C1C(=O)[C@@H]2CC[C@@H](C2)C1=O` (stereo partly shown) [Compound T42], the pest or weed control at 250 g/ha is reported as 100%. Molecule `CC(=O)OC1=C(c2nc(-c3ccc(Br)cn3)sc2C)C(=O)[C@H]2CC[C@@H]1C2` [Compound P6] has a pest or weed control at 250 g/ha of 100%. For `CCc1sc(COc2ccc(Cl)cc2)nc1C1C(=O)[C@@H]2CC[C@@H](C2)C1=O` (stereo partly shown) [Compound T41], the pest or weed control at 250 g/ha was 100%.

These molecules were tested on Amaranthus retoflexus (AMARE) (assay: Example B post-emergence herbicidal activity). Conditions: Amaranthus retroflexus, 312 h, rate 250 g/ha, evaluated after 13 days, read-out: Post-emergence activity AMARE (100=total damage to plant; 0=no damage to plant).
Assay type: in vivo
How it was run: as §1
`CCc1sc(-c2ccc(F)cc2F)nc1C1C(=O)[C@@H]2CC[C@@H](C2)C1=O` (stereo partly shown) [Compound T104] gave a pest or weed control at 250 g/ha of 0%. For `Cc1sc(-c2ccc(OC(F)F)cc2)nc1C1C(=O)[C@@H]2CC[C@@H](C2)C1=O` (stereo partly shown) [Compound T42], the pest or weed control at 250 g/ha was 0%. With `CC(=O)OC1=C(c2nc(-c3ccc(Br)cn3)sc2C)C(=O)[C@H]2CC[C@@H]1C2` [Compound P6] the pest or weed control at 250 g/ha was 0%. Molecule `CCc1sc(COc2ccc(Cl)cc2)nc1C1C(=O)[C@@H]2CC[C@@H](C2)C1=O` (stereo partly shown) [Compound T41] has a pest or weed control at 250 g/ha of 0%.

Each molecule was assayed on Avena fatua (AVEFA) (assay: Example B post-emergence herbicidal activity). Conditions: 312 h, rate 250 g/ha, evaluated after 13 days, read-out: Post-emergence activity AVEFA (100=total damage to plant; 0=no damage to plant).
Assay type: in vivo
How it was run: as §1
`CCc1sc(-c2ccc(F)cc2F)nc1C1C(=O)[C@@H]2CC[C@@H](C2)C1=O` (stereo partly shown) [Compound T104] was tested, and the pest or weed control at 250 g/ha was 90%. `Cc1sc(-c2ccc(OC(F)F)cc2)nc1C1C(=O)[C@@H]2CC[C@@H](C2)C1=O` (stereo partly shown) [Compound T42] gave a pest or weed control at 250 g/ha of 70%. `CC(=O)OC1=C(c2nc(-c3ccc(Br)cn3)sc2C)C(=O)[C@H]2CC[C@@H]1C2` [Compound P6] gave a pest or weed control at 250 g/ha of 80%. With `CCc1sc(COc2ccc(Cl)cc2)nc1C1C(=O)[C@@H]2CC[C@@H](C2)C1=O` (stereo partly shown) [Compound T41] the pest or weed control at 250 g/ha was 70%.

The molecules below were run on Alopecurus myosuroides (ALOMY) (assay: Example B post-emergence herbicidal activity). Conditions: 312 h, rate 250 g/ha, evaluated after 13 days, read-out: Post-emergence activity ALOMY (100=total damage to plant; 0=no damage to plant).
Assay type: in vivo
How it was run: as §1
Molecule `CCc1sc(-c2ccc(F)cc2F)nc1C1C(=O)[C@@H]2CC[C@@H](C2)C1=O` (stereo partly shown) [Compound T104] has a pest or weed control at 250 g/ha of 100%. `Cc1sc(-c2ccc(OC(F)F)cc2)nc1C1C(=O)[C@@H]2CC[C@@H](C2)C1=O` (stereo partly shown) [Compound T42] showed a pest or weed control at 250 g/ha of 100%. For `CC(=O)OC1=C(c2nc(-c3ccc(Br)cn3)sc2C)C(=O)[C@H]2CC[C@@H]1C2` [Compound P6], the pest or weed control at 250 g/ha was 90%. Molecule `CCc1sc(COc2ccc(Cl)cc2)nc1C1C(=O)[C@@H]2CC[C@@H](C2)C1=O` (stereo partly shown) [Compound T41] has a pest or weed control at 250 g/ha of 100%.
